The test relates to MRI-H-121 xenografts (human renal carcinoma tumor line). Put plainly: MRI-H-121 mouse xenograft study, antitumor activity. The test is classed as in vivo, mice. The settings on record: 1.25 mg/kg i.v. days 0, 7 and 14. As to the method:
Compounds: Vials of off-white lyophilized PM14 cake were stored at −20° C. The cake was reconstituted with 2 ml of water for injection (Sigma-Aldrich, Co) to a concentration of 0.5 mg/ml. Further dilutions were made with a 5% glucose solution for injection/USP (Baxter, Inc.). A clear PM14 solution was obtained.
Animals: Female athymic nu/nu mice between 4 to 6 weeks of age were purchased from Envigo (Barcelona, Spain).
Tumor line: MRI-H-121 is a human renal carcinoma tumor line, originally obtained from the DCT Tumor Bank. Developed by Dr. A. E. Bogden, Mason Research Institute MA and maintained as a serial transplanted tumor line in athymic nude mice. Original tissue came from a patient at U. of Mass. Med. Center.
Study groups: Briefly, 4 to 6 week-old female athymic nu/nu mice were subcutaneously implanted into their right flank with a MRI-H-121 tissue from serial transplanted donor mice. Tumors were removed from donor animals and were cut into fragments (3 mm^3). Tissue was debrided of membrane, hemorrhagic and necrotic areas, placed in Matrigel™ (Corning Incorporated Life Sciences) and subcutaneously implanted. Recipient mice were anesthetised by inhalation of isoflurane, a small incision into the skin of the back was made and one tumor fragment per mouse was transplanted with tweezers. The mice were monitored daily.
Tumor bearing animals were randomly allocated into 2 groups (N=10/group): PM14 administered at 1.25 mg/kg and placebo. All treatments were intravenously administered once a week for 3 consecutive weeks (days 0, 7 and 14).
Tumor measurements were determined using digital calipers (Fowler Sylvac, S235PAT). The formula to calculate volume for a prolate ellipsoid was used to estimate tumor volume (mm^3) from 2-dimensional tumor measurements:
Where, a: length (longest diameter) and b: width (shortest diameter) in mm of a tumor.
Tumor volume and animal body weights were measured 2-3 times per week starting from the first day of treatment.
When tumors reached ca. 190 mm^3, tumor bearing animals were randomly allocated into the following experimental groups (N=10/group):
Treatments were initiated on Day 0 and were intravenously administered once per week for 3 consecutive weeks (days 0, 7 and 14).
Tumor volume data from groups following the 1st, 2nd, 3rd, 4th and 5th weeks were compared using a two tailed Mann Whitney U test. The data are presented as medians and interquartile range (IQR).
Complete tumor regression (CR) was defined when tumor volume <63 mm^3 for 2 or more consecutive measurements. Survival statistical differences between groups were assessed by Kaplan Meier curves applying the log rank test.

Structures are written as SMILES.

For the molecule `COc1c(C)cc2c(c1O)[C@@H]1[C@@H]3[C@@H]4SC[C@]5(N[C@H](CO)Cc6c5[nH]c5ccccc65)C(=O)OC[C@@H](c5c6c(c(C)c(OC(C)=O)c54)OCO6)N3[C@@H](O)[C@H](C2)N1C` [PM14, ECUBECTEDIN], the “Median survival time” value turned out to be 32.5 days and the antitumor activity result is listed as “very strong antitumor activity”. Further, the “TV, mm^3 median” value (Day 0) is recorded as 190.8 mm^3. In addition, the “TV, mm^3 median” value (Day 7, 1.25 mg/kg) is 401.2 mm^3. Also, for the setting “Day 14, 1.25 mg/kg”, the “TV, mm^3 median” value is listed as 472.7 mm^3. Also, the “TV, mm^3 median” value (Day 21, 1.25 mg/kg) is 743.8 mm^3. For the setting “Day 28, 1.25 mg/kg”, the “TV, mm^3 median” value was 1392 mm^3. The “TV, mm^3 median” value (Day 35, 1.25 mg/kg) worked out at 2015 mm^3.

The values are drawn from patent publication US20240277705A1, “DOSAGE REGIMENS FOR ECUBECTEDIN” (PHARMA MAR S.A., priority 2021, published 2024).
